Ends that are not written are not given here. Peptide text beside a SMILES is read from it. * marks the point of attachment. Biotin = O=C1N[C@H]2[C@H](CS[C@H]2CCCCC(=O)*)N1

What all share (assay): G' assay (10 uM PL peptide), results of TABLE 7 and TABLE 12
Assay type in all cases: binding

The target in test [1] is T1, PDZ protein (GST-PDZ fusion) (Homo sapiens, UniProt Q9NY99).
T1 construct: made in house; host or cells: E. coli (DH5alpha, BL21 or JM109)
T1 sequence (Q9NY99 1-539): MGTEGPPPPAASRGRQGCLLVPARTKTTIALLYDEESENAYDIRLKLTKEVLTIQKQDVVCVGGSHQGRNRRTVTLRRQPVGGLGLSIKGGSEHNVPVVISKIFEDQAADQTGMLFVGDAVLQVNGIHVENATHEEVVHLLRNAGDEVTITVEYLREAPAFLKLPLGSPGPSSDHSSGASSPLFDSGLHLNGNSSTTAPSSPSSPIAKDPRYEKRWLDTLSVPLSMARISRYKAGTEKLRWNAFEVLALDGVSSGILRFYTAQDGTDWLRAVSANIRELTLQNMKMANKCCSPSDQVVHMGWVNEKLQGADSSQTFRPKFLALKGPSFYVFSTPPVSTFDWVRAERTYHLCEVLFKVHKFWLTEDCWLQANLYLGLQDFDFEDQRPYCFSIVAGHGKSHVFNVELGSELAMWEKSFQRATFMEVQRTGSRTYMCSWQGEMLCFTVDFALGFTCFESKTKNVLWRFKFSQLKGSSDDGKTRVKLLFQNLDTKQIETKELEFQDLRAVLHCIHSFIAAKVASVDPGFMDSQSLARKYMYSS
The following applies: PDZ Syntrophin gamma-2, PDZ Domain 1. A digest of the protocol:
(§1)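 Binding classes derive from A450 nm of bound biotin-tagged PL peptide. A score of 5 needs A450 above 4 in more than two repeats.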

Test [2] deals with T2, PDZ protein (GST-PDZ fusion) (Homo sapiens, UniProt Q9UDY2).
T2 construct: made in house; host or cells: E. coli (DH5alpha, BL21 or JM109)
T2 sequence (Q9UDY2 1-1190): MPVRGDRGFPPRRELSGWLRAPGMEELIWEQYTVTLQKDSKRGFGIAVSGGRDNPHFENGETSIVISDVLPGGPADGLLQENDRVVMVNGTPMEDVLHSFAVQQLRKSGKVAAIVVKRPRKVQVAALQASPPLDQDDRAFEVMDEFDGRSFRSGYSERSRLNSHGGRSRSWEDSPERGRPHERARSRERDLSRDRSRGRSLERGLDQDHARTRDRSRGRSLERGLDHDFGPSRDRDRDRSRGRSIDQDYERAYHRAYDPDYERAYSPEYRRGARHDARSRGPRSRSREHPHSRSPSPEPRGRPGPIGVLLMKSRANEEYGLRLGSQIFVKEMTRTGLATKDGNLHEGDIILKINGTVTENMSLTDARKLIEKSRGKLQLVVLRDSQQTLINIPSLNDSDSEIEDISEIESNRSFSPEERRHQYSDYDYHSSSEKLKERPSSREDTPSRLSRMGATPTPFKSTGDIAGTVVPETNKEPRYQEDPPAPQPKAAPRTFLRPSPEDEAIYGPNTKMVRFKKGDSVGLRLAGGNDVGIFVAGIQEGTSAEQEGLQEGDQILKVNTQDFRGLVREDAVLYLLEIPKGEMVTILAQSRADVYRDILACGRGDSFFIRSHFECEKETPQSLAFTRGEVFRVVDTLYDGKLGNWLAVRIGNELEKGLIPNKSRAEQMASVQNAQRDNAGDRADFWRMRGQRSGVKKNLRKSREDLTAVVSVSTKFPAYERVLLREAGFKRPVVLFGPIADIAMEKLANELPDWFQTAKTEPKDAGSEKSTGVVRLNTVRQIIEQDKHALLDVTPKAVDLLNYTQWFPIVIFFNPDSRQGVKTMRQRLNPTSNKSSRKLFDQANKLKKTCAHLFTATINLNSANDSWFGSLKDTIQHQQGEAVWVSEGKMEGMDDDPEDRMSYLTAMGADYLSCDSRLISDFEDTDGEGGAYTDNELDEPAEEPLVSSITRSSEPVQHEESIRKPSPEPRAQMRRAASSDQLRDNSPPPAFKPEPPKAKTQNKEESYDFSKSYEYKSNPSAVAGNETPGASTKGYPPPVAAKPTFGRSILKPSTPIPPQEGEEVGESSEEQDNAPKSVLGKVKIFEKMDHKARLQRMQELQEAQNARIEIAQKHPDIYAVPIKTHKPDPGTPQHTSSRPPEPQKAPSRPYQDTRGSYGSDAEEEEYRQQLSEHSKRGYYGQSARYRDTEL
The following applies: PDZ ZO-2, PDZ Domain 1. In a few lines: as §1

The target in test [3] is T3, PDZ protein (GST-PDZ fusion) (Homo sapiens, UniProt Q9C0E4).
T3 construct: made in house; host or cells: E. coli (DH5alpha, BL21 or JM109)
The following applies: PDZ KIAA1719, PDZ Domain 5. A digest of the protocol: as §1

T3 sequence (Q9C0E4 whole entry, the tested form may be a part): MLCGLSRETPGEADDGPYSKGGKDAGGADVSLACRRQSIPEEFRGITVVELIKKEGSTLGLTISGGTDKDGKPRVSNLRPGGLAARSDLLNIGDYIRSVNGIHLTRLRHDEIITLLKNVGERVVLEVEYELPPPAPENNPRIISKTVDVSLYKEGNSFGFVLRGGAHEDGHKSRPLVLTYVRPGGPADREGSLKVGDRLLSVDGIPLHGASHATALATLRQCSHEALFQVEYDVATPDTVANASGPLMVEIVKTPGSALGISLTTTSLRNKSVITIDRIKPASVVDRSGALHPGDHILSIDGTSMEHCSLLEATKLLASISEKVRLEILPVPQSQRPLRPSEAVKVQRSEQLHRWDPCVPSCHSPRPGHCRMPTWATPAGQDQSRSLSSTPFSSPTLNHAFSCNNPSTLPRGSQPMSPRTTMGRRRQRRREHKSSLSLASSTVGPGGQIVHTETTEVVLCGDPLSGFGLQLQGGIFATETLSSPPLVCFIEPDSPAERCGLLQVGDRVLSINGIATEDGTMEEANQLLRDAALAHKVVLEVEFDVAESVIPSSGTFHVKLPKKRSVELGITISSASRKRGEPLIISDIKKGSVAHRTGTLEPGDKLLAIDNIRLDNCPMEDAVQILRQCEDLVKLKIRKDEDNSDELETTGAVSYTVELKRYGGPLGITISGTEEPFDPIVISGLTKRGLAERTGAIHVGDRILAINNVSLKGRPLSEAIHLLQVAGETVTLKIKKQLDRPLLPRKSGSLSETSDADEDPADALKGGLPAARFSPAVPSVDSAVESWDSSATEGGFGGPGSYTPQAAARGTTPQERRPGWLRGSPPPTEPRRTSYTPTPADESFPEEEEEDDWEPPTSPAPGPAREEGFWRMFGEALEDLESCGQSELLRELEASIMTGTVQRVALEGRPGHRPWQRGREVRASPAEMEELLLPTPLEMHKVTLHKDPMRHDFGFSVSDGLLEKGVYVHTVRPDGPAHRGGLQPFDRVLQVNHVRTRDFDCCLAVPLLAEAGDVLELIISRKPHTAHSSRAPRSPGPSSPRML

Turning to “PPATPSPRLALPAHHNATRL (Biotin-PPATPSPRLALPAHHNATRL) [Na+/Pi cotransporter 2]”, the Classification in test [1] and in test [2] was 1 (A450 nm 0-1) each time. Regarding `CSCC[C@H](NC(=O)[C@H](C)NC(=O)[C@H](CCCNC(=N)N)NC(=O)CNC(=O)[C@@H](NC(=O)[C@H](Cc1c[nH]c2ccccc12)NC(=O)[C@H](CCCNC(=N)N)NC(=O)CNC(=O)CCCC[C@@H]1SC[C@@H]2NC(=O)N[C@@H]21)[C@@H](C)O)C(=O)N[C@@H](CO)C(=O)N[C@@H](C)C(=O)N[C@@H](Cc1c[nH]c2ccccc12)C(=O)N[C@@H](CCCCN)C(=O)N1CCC[C@H]1C(=O)N[C@H](C(=O)N[C@@H](CCCNC(=N)N)C(=O)N[C@@H](CCCNC(=N)N)C(=O)N[C@@H](CCC(=O)O)C(=O)N[C@H](C(=O)N[C@@H](CCC(=O)O)C(=O)N[C@H](C(=O)O)C(C)C)[C@@H](C)O)[C@@H](C)O` [HPV E6 #35 (modified)] (Biotin-GRWTGRAMSAWKPTRRETEV-OH; C-terminus assumed), the Classification is on record as 1 (A450 nm 0-1) in test [3], 3 (A450 nm 2-3) in test [1] and 2 (A450 nm 1-2) in test [2].

With `CC(C)C[C@H](NC(=O)[C@H](C)NC(=O)[C@@H](NC(=O)[C@H](CCC(=O)O)NC(=O)[C@H](CCCNC(=N)N)NC(=O)[C@H](CCCNC(=N)N)NC(=O)CNC(=O)[C@H](CCC(N)=O)NC(=O)[C@H](CC(C)C)NC(=O)[C@H](CCCNC(=N)N)NC(=O)CNC(=O)CNC(=O)[C@H](CCCNC(=N)N)NC(=O)[C@H](C)NC(=O)[C@H](CO)NC(=O)[C@H](CCCNC(=N)N)NC(=O)CNC(=O)CNC(=O)[C@H](C)NC(=O)[C@H](C)NC(=O)CCCC[C@@H]1SC[C@@H]2NC(=O)N[C@@H]21)[C@@H](C)O)C(=O)O` [HPV E6 33 (modified)] (Biotin-AAGGRSARGGRLQGRRETAL-OH; C-terminus assumed), the Classification in test [1] and in test [2] was 1 (A450 nm 0-1) in each case. As to TQGFPGPATWRRISSLESEV, the Classification in test [1] is on record as 2 (A450 nm 1-2). Same read-out and setting: with `CC[C@H](C)[C@H](NC(=O)[C@H](CCC(N)=O)NC(=O)CCCC[C@@H]1SC[C@@H]2NC(=O)N[C@@H]21)C(=O)N[C@@H](CO)C(=O)N1CCC[C@H]1C(=O)NCC(=O)NCC(=O)N[C@@H](CC(C)C)C(=O)N[C@@H](CCC(=O)O)C(=O)N1CCC[C@H]1C(=O)N1CCC[C@H]1C(=O)N[C@@H](CO)C(=O)N[C@@H](CCC(=O)O)C(=O)N[C@@H](CCCCN)C(=O)N[C@@H](Cc1c[nH]cn1)C(=O)N[C@@H](Cc1ccccc1)C(=O)N[C@@H](CCCNC(=N)N)C(=O)N[C@@H](CCC(=O)O)C(=O)N[C@H](C(=O)N[C@@H](CCC(=O)O)C(=O)N[C@H](C(=O)O)C(C)C)[C@@H](C)O` [Tax] the figure was 1 (A450 nm 0-1).

The record behind these values is patent US20050282743A1, “Molecular interactions in cells” (Arbor Vita Corporation, priority 2001, published 2005).
